Tests used:
Amaranthus = test: Post-emergence test/greenhouse; format: in vivo; settings: 80 g of ai/ha, WP sprayed at one-leaf stage, scored visually after about 3 weeks, 100% = plants have died, 0% = like control plants
Description: (§1) Seeds of mono- and dicotyledonous weed and crop plants are placed in sandy loam soil in wood fiber pots, covered with soil and cultivated in a greenhouse under good growth conditions. 2 to 3 weeks after sowing, the trial plants are treated at the one-leaf stage. The test compounds, formulated as wettable powders (WP), are sprayed at various dosages with a water application rate of 800 I/ha (converted) and with addition of 0.2% of welting agent onto the green parts of the plants. After the trial plants have stood in the greenhouse for about 3 weeks under optimum growth conditions, the effect of the products is scored visually in comparison to untreated controls (herbicidal effect in percent (%): 100% effect=plants have died, 0% effect=like control plants).

Cyperus = test: Post-emergence test/greenhouse; format: in vivo; settings: 80 g of ai/ha, WP sprayed at one-leaf stage, scored visually after about 3 weeks, 100% = plants have died, 0% = like control plants
Description: as §1

Echinochloa = test: Post-emergence test/greenhouse; format: in vivo; settings: 80 g of ai/ha, WP sprayed at one-leaf stage, scored visually after about 3 weeks, 100% = plants have died, 0% = like control plants
Description: as §1

Lolium = test: Post-emergence test/greenhouse; format: in vivo; settings: 80 g of ai/ha, WP sprayed at one-leaf stage, scored visually after about 3 weeks, 100% = plants have died, 0% = like control plants
Description: as §1

Setaria = test: Post-emergence test/greenhouse; format: in vivo; settings: 80 g of ai/ha, WP sprayed at one-leaf stage, scored visually after about 3 weeks, 100% = plants have died, 0% = like control plants
Description: as §1

Sinapis = test: Post-emergence test/greenhouse; format: in vivo; settings: 80 g of ai/ha, WP sprayed at one-leaf stage, scored visually after about 3 weeks, 100% = plants have died, 0% = like control plants
Description: as §1

Stellaria = test: Post-emergence test/greenhouse; format: in vivo; settings: 80 g of ai/ha, WP sprayed at one-leaf stage, scored visually after about 3 weeks, 100% = plants have died, 0% = like control plants
Description: as §1

weeds = test: Post-emergence test (summary in words); format: in vivo, mono- and dicotyledonous weed plants; settings: greenhouse, result in words
Description: as §1

SMILES | herbicidal effect in percent, Amaranthus (Amaranthus) | herbicidal effect in percent, Cyperus (Cyperus) | herbicidal effect in percent, Echinochloa (Echinochloa) | herbicidal effect in percent, Lolium (Lolium) | herbicidal effect in percent, Setaria (Setaria) | herbicidal effect in percent, Sinapis (Sinapis) | herbicidal effect in percent, Stellaria (Stellaria) | effectiveness against weeds (weeds)
COc1nn(C)c(=O)n1C [Example 6] | 90% | 80% | 80% | 90% | 80% | 80% | 90% | highly effective
CCOc1nn(C)c(=O)n1C [Example 7] | 90% | 90% | 90% | 90% | 90% | 80% | 90% | highly effective
COc1nc(C)nc(NC(=O)NS(=O)(=O)c2c(C3=NOCCO3)csc2C)n1 [Example 1, N-(4-methoxy-6-methyl-1,3,5-triazin-2-yl)-N′-(4-(5,6-dihydro-[1,4,2]-dioxazin-3-yl)-2-methylthien-3-ylsulfonyl)urea] | 90% | 100% | 90% | 90% | 90% | 90% | 90% | highly effective
